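Grown in 96-well plates, cells were treated for 48 hours with each compound at five concentrations. Insufficient inhibition: endpoint recorded as highest concentration tested. GI50: concentration for 50% inhibition of growth. TGI is the concentration that stops growth completely.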
Tests used:
Assay in all cases: NCI tumour cell line growth inhibition, 48 h
786-0 renal = system: 786-0 renal
A498 renal = system: A498 renal
A549 NSCLC = system: A549 NSCLC
ACHN renal = system: ACHN renal
BT-549 breast = system: BT-549 breast
CAKI-1 renal = system: CAKI-1 renal
CCRF-CEM leukemia = system: CCRF-CEM leukemia
COLO 205 colon = system: COLO 205 colon
DU-145 prostate = system: DU-145 prostate
EKVX NSCLC = system: EKVX NSCLC
HCC-2998 colon = system: HCC-2998 colon
HCT-116 colon = system: HCT-116 colon
HCT-15 colon = system: HCT-15 colon
HL-60(TB) leukemia = system: HL-60(TB) leukemia
HOP-62 NSCLC = system: HOP-62 NSCLC
HOP-92 NSCLC = system: HOP-92 NSCLC
HS 578T breast = system: HS 578T breast
HT29 colon = system: HT29 colon
IGROV1 ovarian = system: IGROV1 ovarian
K-562 leukemia = system: K-562 leukemia
KM12 colon = system: KM12 colon
LOX IMVI melanoma = system: LOX IMVI melanoma
M14 melanoma = system: M14 melanoma
MALME-3M melanoma = system: MALME-3M melanoma
MCF7 breast = system: MCF7 breast
MDA-MB-231 breast = system: MDA-MB-231 breast
MDA-MB-435 = system: MDA-MB-435
MOLT-4 leukemia = system: MOLT-4 leukemia
NCI-H226 lung = system: NCI-H226 lung
NCI-H23 lung = system: NCI-H23 lung
NCI-H460 lung = system: NCI-H460 lung
NCI-H522 lung = system: NCI-H522 lung
NCI/ADR-RES ovarian = system: NCI/ADR-RES ovarian
OVCAR-3 ovarian = system: OVCAR-3 ovarian
OVCAR-4 ovarian = system: OVCAR-4 ovarian
OVCAR-5 ovarian = system: OVCAR-5 ovarian
OVCAR-8 ovarian = system: OVCAR-8 ovarian
PC-3 prostate = system: PC-3 prostate
RPMI-8226 leukemia = system: RPMI-8226 leukemia
RXF 393 renal = system: RXF 393 renal
SF-268 CNS = system: SF-268 CNS
SF-295 CNS = system: SF-295 CNS
SF-539 CNS = system: SF-539 CNS
SK-MEL-2 melanoma = system: SK-MEL-2 melanoma
SK-MEL-28 melanoma = system: SK-MEL-28 melanoma
SK-MEL-5 melanoma = system: SK-MEL-5 melanoma
SK-OV-3 ovarian = system: SK-OV-3 ovarian
SN12C renal = system: SN12C renal
SNB-19 CNS = system: SNB-19 CNS
SNB-75 CNS = system: SNB-75 CNS
SW-620 colon = system: SW-620 colon
T-47D breast = system: T-47D breast
TK-10 renal = system: TK-10 renal
U251 CNS = system: U251 CNS
UACC-257 melanoma = system: UACC-257 melanoma
UACC-62 melanoma = system: UACC-62 melanoma
UO-31 renal = system: UO-31 renal

For `COc1ccccc1C#Cc1ccccc1C#Cc1ccc(OCCCCCCOc2ccccc2C#Cc2ccccc2C#Cc2ccccc2OC)cc1`, the GI50 (786-0 renal) was > 100 µM, the TGI (786-0 renal) was > 100 µM and the GI50 (A498 renal) was > 100 µM. The TGI (A498 renal) was > 100 µM, the GI50 (A549 NSCLC) was > 100 µM and the TGI (A549 NSCLC) was > 100 µM. The GI50 (ACHN renal) was > 100 µM, the TGI (ACHN renal) was > 100 µM and the GI50 (BT-549 breast) was > 100 µM. The TGI (BT-549 breast) was > 100 µM, the GI50 (CAKI-1 renal) was > 100 µM and the TGI (CAKI-1 renal) was > 100 µM. For the same compound, the GI50 (CCRF-CEM leukemia) was > 100 µM, the TGI (CCRF-CEM leukemia) was > 100 µM and the GI50 (COLO 205 colon) was > 100 µM. For the same compound, the TGI (COLO 205 colon) was > 100 µM, the GI50 (DU-145 prostate) was > 100 µM and the TGI (DU-145 prostate) was > 100 µM. For the same compound, the GI50 (EKVX NSCLC) was > 100 µM, the TGI (EKVX NSCLC) was > 100 µM and the GI50 (HCC-2998 colon) was > 100 µM. The TGI (HCC-2998 colon) was > 100 µM, the GI50 (HCT-116 colon) was > 100 µM and the TGI (HCT-116 colon) was > 100 µM. For the same compound, the GI50 (HCT-15 colon) was > 100 µM, the TGI (HCT-15 colon) was > 100 µM and the GI50 (HL-60(TB) leukemia) was > 100 µM. For the same compound, the TGI (HL-60(TB) leukemia) was > 100 µM, the GI50 (HOP-62 NSCLC) was > 100 µM and the TGI (HOP-62 NSCLC) was > 100 µM. The GI50 (HOP-92 NSCLC) was 90.1 µM, the TGI (HOP-92 NSCLC) was > 100 µM and the GI50 (HS 578T breast) was > 100 µM. The TGI (HS 578T breast) was > 100 µM, the GI50 (HT29 colon) was > 100 µM and the TGI (HT29 colon) was > 100 µM. The GI50 (IGROV1 ovarian) was > 100 µM, the TGI (IGROV1 ovarian) was > 100 µM and the GI50 (K-562 leukemia) was > 100 µM. For the same compound, the TGI (K-562 leukemia) was > 100 µM, the GI50 (KM12 colon) was > 100 µM and the TGI (KM12 colon) was > 100 µM. The GI50 (LOX IMVI melanoma) was > 100 µM, the TGI (LOX IMVI melanoma) was > 100 µM and the GI50 (M14 melanoma) was > 100 µM. For the same compound, the TGI (M14 melanoma) was > 100 µM, the GI50 (MALME-3M melanoma) was > 100 µM and the TGI (MALME-3M melanoma) was > 100 µM. For the same compound, the GI50 (MCF7 breast) was > 100 µM, the TGI (MCF7 breast) was > 100 µM and the GI50 (MDA-MB-231 breast) was > 100 µM. For the same compound, the TGI (MDA-MB-231 breast) was > 100 µM, the GI50 (MDA-MB-435) was > 100 µM and the TGI (MDA-MB-435) was > 100 µM. The GI50 (MOLT-4 leukemia) was > 100 µM, the TGI (MOLT-4 leukemia) was > 100 µM and the GI50 (NCI-H226 lung) was > 100 µM. The TGI (NCI-H226 lung) was > 100 µM, the GI50 (NCI-H23 lung) was > 100 µM and the TGI (NCI-H23 lung) was > 100 µM. The GI50 (NCI-H460 lung) was > 100 µM, the TGI (NCI-H460 lung) was > 100 µM and the GI50 (NCI-H522 lung) was > 100 µM. The TGI (NCI-H522 lung) was > 100 µM, the GI50 (NCI/ADR-RES ovarian) was > 100 µM and the TGI (NCI/ADR-RES ovarian) was > 100 µM. For the same compound, the GI50 (OVCAR-3 ovarian) was > 100 µM, the TGI (OVCAR-3 ovarian) was > 100 µM and the GI50 (OVCAR-4 ovarian) was > 100 µM. For the same compound, the TGI (OVCAR-4 ovarian) was > 100 µM, the GI50 (OVCAR-5 ovarian) was > 100 µM and the TGI (OVCAR-5 ovarian) was > 100 µM. The GI50 (OVCAR-8 ovarian) was > 100 µM, the TGI (OVCAR-8 ovarian) was > 100 µM and the GI50 (PC-3 prostate) was > 100 µM. For the same compound, the TGI (PC-3 prostate) was > 100 µM, the GI50 (RPMI-8226 leukemia) was > 100 µM and the TGI (RPMI-8226 leukemia) was > 100 µM. For the same compound, the GI50 (RXF 393 renal) was > 100 µM, the TGI (RXF 393 renal) was > 100 µM and the GI50 (SF-268 CNS) was > 100 µM. For the same compound, the TGI (SF-268 CNS) was > 100 µM, the GI50 (SF-295 CNS) was > 100 µM and the TGI (SF-295 CNS) was > 100 µM. The GI50 (SF-539 CNS) was > 100 µM, the TGI (SF-539 CNS) was > 100 µM and the GI50 (SK-MEL-2 melanoma) was > 100 µM. For the same compound, the TGI (SK-MEL-2 melanoma) was > 100 µM, the GI50 (SK-MEL-28 melanoma) was > 100 µM and the TGI (SK-MEL-28 melanoma) was > 100 µM. For the same compound, the GI50 (SK-MEL-5 melanoma) was > 100 µM, the TGI (SK-MEL-5 melanoma) was > 100 µM and the GI50 (SK-OV-3 ovarian) was > 100 µM. For the same compound, the TGI (SK-OV-3 ovarian) was > 100 µM, the GI50 (SN12C renal) was > 100 µM and the TGI (SN12C renal) was > 100 µM. The GI50 (SNB-19 CNS) was > 100 µM, the TGI (SNB-19 CNS) was > 100 µM and the GI50 (SNB-75 CNS) was > 100 µM. For the same compound, the TGI (SNB-75 CNS) was > 100 µM, the GI50 (SW-620 colon) was > 100 µM and the TGI (SW-620 colon) was > 100 µM. For the same compound, the GI50 (T-47D breast) was > 100 µM, the TGI (T-47D breast) was > 100 µM and the GI50 (TK-10 renal) was > 100 µM. The TGI (TK-10 renal) was > 100 µM, the GI50 (U251 CNS) was > 100 µM and the TGI (U251 CNS) was > 100 µM. The GI50 (UACC-257 melanoma) was > 100 µM, the TGI (UACC-257 melanoma) was > 100 µM and the GI50 (UACC-62 melanoma) was > 100 µM. For the same compound, the TGI (UACC-62 melanoma) was > 100 µM, the GI50 (UO-31 renal) was > 100 µM and the TGI (UO-31 renal) was > 100 µM.

From PubChem BioAssay (NCI)
